Assay results reported in ChEMBL document CHEMBL5042478, “Design, Synthesis, and Evaluation of VHL-Based EZH2 Degraders to Enhance Therapeutic Activity against Lymphoma” (J Med Chem, 2021).
Activity calls are given as the source filed them. No cut-off for these calls is given here.

How the values were obtained:
SU-DHL-6 [1] = test: Induction of cell cycle arrest in human SU-DHL-6 cells assessed as accumulation of cells at sub G1 phase after 24 hrs by flow cytometry; type: functional, cell-based; details: dose 1-5 µM
DLBCL [2] = test: Antitumor activity against patient derived human DLBCL cells assessed as increase in capase-3 activity at 1 to 7 uM incubated for 48 hrs by western blot analysis; type: functional, cell-based; details: dose 1-7 µM
[3] = target: T1, von Hippel-Lindau disease tumor suppressor/Histone-lysine N-methyltransferase EZH2 (Homo sapiens) (UniProt Q15910+P40337); test: Protac activity at VHL/EZH2 in human 22Rv1 cells assessed as reduction in H3K27me3 level after 24 hrs by Western blot analysis; type: cell-based; details: dose 1-6 µM
T1 sequence (P40337 whole entry, looked up): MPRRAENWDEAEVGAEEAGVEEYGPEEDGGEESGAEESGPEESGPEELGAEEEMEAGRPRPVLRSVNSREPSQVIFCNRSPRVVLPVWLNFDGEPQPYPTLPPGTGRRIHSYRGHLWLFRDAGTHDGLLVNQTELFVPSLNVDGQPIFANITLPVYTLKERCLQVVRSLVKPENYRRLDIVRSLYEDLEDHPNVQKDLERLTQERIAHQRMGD
T1 sequence (Q15910 whole entry, looked up): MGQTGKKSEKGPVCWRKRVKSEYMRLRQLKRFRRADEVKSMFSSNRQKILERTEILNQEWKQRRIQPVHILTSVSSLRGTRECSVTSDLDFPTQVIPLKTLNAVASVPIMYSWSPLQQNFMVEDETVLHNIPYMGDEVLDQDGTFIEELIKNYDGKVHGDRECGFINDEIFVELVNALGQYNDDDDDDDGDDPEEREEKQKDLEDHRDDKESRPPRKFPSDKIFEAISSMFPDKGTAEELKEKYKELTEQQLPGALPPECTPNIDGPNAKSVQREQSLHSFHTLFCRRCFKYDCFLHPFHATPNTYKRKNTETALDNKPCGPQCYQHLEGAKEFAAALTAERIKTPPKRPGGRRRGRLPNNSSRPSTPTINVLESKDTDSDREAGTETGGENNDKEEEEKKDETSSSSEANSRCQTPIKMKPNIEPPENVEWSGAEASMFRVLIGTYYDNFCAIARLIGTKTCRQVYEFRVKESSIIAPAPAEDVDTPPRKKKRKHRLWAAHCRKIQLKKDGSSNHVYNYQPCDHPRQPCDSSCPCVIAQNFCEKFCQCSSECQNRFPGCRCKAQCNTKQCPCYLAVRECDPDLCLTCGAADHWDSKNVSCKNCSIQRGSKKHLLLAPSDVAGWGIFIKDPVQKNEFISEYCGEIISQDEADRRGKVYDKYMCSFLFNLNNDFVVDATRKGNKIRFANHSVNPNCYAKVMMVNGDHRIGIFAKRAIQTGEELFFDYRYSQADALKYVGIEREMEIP

SU-DHL-6 [4] = test: Antitumor activity against human SU-DHL-6 cells xenografted in nude Balb/c mouse assessed as reduction in EZH2 level in tumor tissue at 80 mg/kg, ip administered for 6 times weekly for 3 weeks by Western blot analysis; type: functional, organism-based
[5] = target: T1, von Hippel-Lindau disease tumor suppressor/Histone-lysine N-methyltransferase EZH2 (Homo sapiens); test: Protac activity at VHL/EZH2 in human 22Rv1 cells assessed as reduction in EZH2 level at 1 uM incubated for 48 hrs by Western blot analysis; type: cell-based
SU-DHL-6 [6] = test: Induction of cell cycle arrest in human SU-DHL-6 cells after 24 hrs by flow cytometry; type: functional, cell-based; details: dose 1-5 µM
[7] = target: T1, von Hippel-Lindau disease tumor suppressor/Histone-lysine N-methyltransferase EZH2 (Homo sapiens); test: Protac activity at VHL/EZH2 in human 22Rv1 cells assessed as EZH2 protein abundance after 24 hrs by Western blot analysis; type: cell-based; details: dose 1-6 µM
[8] = target: T1, von Hippel-Lindau disease tumor suppressor/Histone-lysine N-methyltransferase EZH2 (Homo sapiens); test: Protac activity at VHL/EZH2 in human 22Rv1 cells assessed as increase in EZH2 ubiquitination at 2 uM for 12 hrs by immunoprecipitation based Western blot analysis; type: cell-based
SU-DHL-6 [9] = test: Induction of apoptosis in human SU-DHL-6 cells assessed as increase in cleaved PARP level at 1 to 5 uM incubated for 48 hrs by Western blot analysis; type: functional, cell-based; details: dose 1-5 µM
SU-DHL-6 [10] = test: Antiproliferative activity against human SU-DHL-6 cells assessed as reduction in cell viability at 0.01 to 10 uM measured after 5 days by MTS assay; type: functional, cell-based; details: dose 0.01-10 µM, time 5.0 day
SU-DHL-6 [11] = test: Antitumor activity against human SU-DHL-6 cells xenografted in Balb/c mouse assessed as inhibition of tumor growth at 80 mg/kg, ip administered for 6 times weekly for 3 weeks by Ki67 staining based immunohistochemistry; type: functional, organism-based
SU-DHL-6 [12] = test: Antitumor activity against human SU-DHL-6 cells xenografted in nude Balb/c mouse assessed as reduction in tumor volume at 42.5 mg/kg, ip administered for 6 times weekly for 3 weeks; type: functional, organism-based
SU-DHL-2 = test: Antiproliferative activity against human SUDHL2 cells assessed as reduction in cell viability at 0.01 to 10 uM measured after 5 days by MTS assay; type: functional, cell-based; details: dose 0.01-10 µM, time 5.0 day
SU-DHL-6 [13] = test: Antitumor activity against human SU-DHL-6 cells xenografted in Balb/c mouse assessed as […] in tumor tissue at 80 mg/kg, ip administered for 6 times weekly for 3 weeks by Ki67 staining based immunohistochemistry; type: functional, organism-based
SUD4 = test: Antiproliferative activity against human SU-DHL-4 cells assessed as reduction in cell viability at 0.01 to 10 uM measured after 5 days by MTS assay; type: functional, cell-based; details: dose 0.01-10 µM, time 5.0 day
DLBCL [14] = test: Antitumor activity against patient derived human DLBCL cells assessed as reduction in cell viability at 1 to 7 uM incubated for 48 hrs by adenosine triphosphate assay; type: functional, cell-based; details: dose 1-7 µM
[15] = Toxicity in nude BALB/c mouse xenografted with SU-DHL-6 cells assessed as weight loss at 80 mg/kg, ip administered for 6 times weekly for 3 weeks; type: organism-based; details: in vivo, 504 h
SU-DHL-6 [16] = test: Antitumor activity against human SU-DHL-6 cells xenografted in nude Balb/c mouse assessed as reduction in H3K27me3 level in tumor tissue at 80 mg/kg, ip administered for 6 times weekly for 3 weeks by Western blot analysis; type: functional, organism-based
DLBCL [17] = test: Antitumor activity against patient derived human DLBCL cells assessed as increase in capase-6 activity at 1 to 7 uM incubated for 48 hrs by western blot analysis; type: functional, cell-based; details: dose 1-7 µM
SU-DHL-6 [18] = test: Antitumor activity against human SU-DHL-6 cells xenografted in nude Balb/c mouse assessed as reduction in tumor volume at 80 mg/kg, ip administered for 6 times weekly for 3 weeks; type: functional, organism-based
DLBCL [19] = test: Antitumor activity against patient derived human DLBCL cells assessed as EZH2 degradation for 24 hrs by western blot analysis; type: functional, cell-based; details: dose 0.1-5 µM
[20] = target: von Hippel-Lindau disease tumor suppressor/Histone-lysine N-methyltransferase EZH1 (Homo sapiens) (UniProt Q92800+P40337); test: Protac activity at VHL/EZH1 in human 22Rv1 cells assessed as EZH1 protein abundance at 1 to 6 uM after 24 hrs by Western blot analysis; type: cell-based; details: dose 1-6 µM
Chain of von Hippel-Lindau disease tumor suppressor/Histone-lysine N-methyltransferase EZH1 (Homo sapiens) (P40337 whole entry, looked up): as the sequence (P40337 whole entry, looked up) above
Chain of von Hippel-Lindau disease tumor suppressor/Histone-lysine N-methyltransferase EZH1 (Homo sapiens) (Q92800 whole entry, looked up): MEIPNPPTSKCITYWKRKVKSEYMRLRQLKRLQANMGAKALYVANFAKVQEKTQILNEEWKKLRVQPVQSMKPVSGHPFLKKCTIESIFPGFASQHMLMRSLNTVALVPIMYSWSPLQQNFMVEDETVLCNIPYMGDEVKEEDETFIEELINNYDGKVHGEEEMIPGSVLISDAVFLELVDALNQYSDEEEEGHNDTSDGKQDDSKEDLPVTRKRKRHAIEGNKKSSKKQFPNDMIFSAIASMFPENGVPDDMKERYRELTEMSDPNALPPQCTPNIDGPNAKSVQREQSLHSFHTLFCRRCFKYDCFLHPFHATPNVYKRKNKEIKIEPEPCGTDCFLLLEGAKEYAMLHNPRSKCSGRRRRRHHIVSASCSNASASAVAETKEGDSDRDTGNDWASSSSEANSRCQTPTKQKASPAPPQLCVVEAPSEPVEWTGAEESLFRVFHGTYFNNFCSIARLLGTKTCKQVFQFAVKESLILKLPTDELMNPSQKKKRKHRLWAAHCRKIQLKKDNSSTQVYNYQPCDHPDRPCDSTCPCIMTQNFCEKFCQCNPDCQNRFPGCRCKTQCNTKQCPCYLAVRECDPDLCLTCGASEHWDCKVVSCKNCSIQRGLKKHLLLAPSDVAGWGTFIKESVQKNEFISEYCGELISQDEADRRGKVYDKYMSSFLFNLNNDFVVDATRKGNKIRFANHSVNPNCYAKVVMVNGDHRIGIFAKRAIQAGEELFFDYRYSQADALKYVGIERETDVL

[21] = target: T1, von Hippel-Lindau disease tumor suppressor/Histone-lysine N-methyltransferase EZH2 (Homo sapiens); test: Protac activity at VHL/EZH2 in human 22Rv1 cells assessed as reduction in H3K27me3 level at 1 uM incubated for 48 hrs by Western blot analysis; type: cell-based
SU-DHL-6 [22] = test: Induction of apoptosis in human SU-DHL-6 cells assessed as increase in cleaved capase-3 level at 1 to 5 uM incubated for 48 hrs by Western blot analysis; type: functional, cell-based; details: dose 1-5 µM
SU-DHL-6 [23] = test: Induction of apoptosis in human SU-DHL-6 cells at 1 to 5 uM incubated for 48 hrs by Annexin V/propidium iodide staining based flow cytometry; type: functional, cell-based; details: dose 1-5 µM
[24] = target: T2, Protein cereblon/Histone-lysine N-methyltransferase EZH2 (Homo sapiens) (UniProt Q15910+Q96SW2); test: Protac activity at CRBN E3 ligase/EZH2 in human 22Rv1 cells assessed as degradation of EZH2 at 0.3 uM incubated for 48 hrs by Western blot analysis; type: cell-based
T2 sequence (Q15910 whole entry, looked up): as the sequence (Q15910 whole entry, looked up) above
T2 sequence (Q96SW2 whole entry, looked up): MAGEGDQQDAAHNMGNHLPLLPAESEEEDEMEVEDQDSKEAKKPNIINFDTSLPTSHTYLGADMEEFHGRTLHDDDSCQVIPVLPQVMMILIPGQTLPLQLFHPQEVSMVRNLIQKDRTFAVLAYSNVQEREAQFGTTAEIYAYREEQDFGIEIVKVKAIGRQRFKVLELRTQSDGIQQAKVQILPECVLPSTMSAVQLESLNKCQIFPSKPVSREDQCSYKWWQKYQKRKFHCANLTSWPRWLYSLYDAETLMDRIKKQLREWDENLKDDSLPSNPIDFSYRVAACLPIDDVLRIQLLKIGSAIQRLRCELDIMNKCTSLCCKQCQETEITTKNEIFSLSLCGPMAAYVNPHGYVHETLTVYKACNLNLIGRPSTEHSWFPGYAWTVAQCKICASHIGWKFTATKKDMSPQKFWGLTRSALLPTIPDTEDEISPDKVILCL

[25] = target: T2, Protein cereblon/Histone-lysine N-methyltransferase EZH2 (Homo sapiens); test: Protac activity at CRBN E3 ligase/EZH2 in human 22Rv1 cells assessed as inhibition of H3K27me3 at 0.3 uM incubated for 48 hrs by Western blot analysis; type: cell-based
[26] = target: T2, Protein cereblon/Histone-lysine N-methyltransferase EZH2 (Homo sapiens); test: Protac activity at CRBN E3 ligase/EZH2 in human 22Rv1 cells assessed as inhibition of H3K27me3 at 3 uM incubated for 48 hrs by Western blot analysis; type: cell-based
[27] = target: T2, Protein cereblon/Histone-lysine N-methyltransferase EZH2 (Homo sapiens); test: Protac activity at CRBN E3 ligase/EZH2 in human 22Rv1 cells assessed as inhibition of H3K27me3 at 1 uM incubated for 48 hrs by Western blot analysis; type: cell-based
[28] = target: T2, Protein cereblon/Histone-lysine N-methyltransferase EZH2 (Homo sapiens); test: Protac activity at CRBN E3 ligase/EZH2 in human 22Rv1 cells assessed as degradation of EZH2 at 3 uM incubated for 48 hrs by Western blot analysis; type: cell-based
[29] = target: T2, Protein cereblon/Histone-lysine N-methyltransferase EZH2 (Homo sapiens); test: Protac activity at CRBN E3 ligase/EZH2 in human 22Rv1 cells assessed as degradation of EZH2 at 1 uM incubated for 48 hrs by Western blot analysis; type: cell-based

Question: What does the source list for CCN(c1cc(-c2ccc(OCCCOCC(=O)N[C@H](C(=O)N3C[C@H](O)C[C@H]3C(=O)NCc3ccc(-c4scnc4C)cc3)C(C)(C)C)cc2)cc(C(=O)NCc2c(C)cc(C)[nH]c2=O)c1C)C1CCOCC1?
Answer: Activity (SU-DHL-6 [1]): Dose-Dependent Effect; Activity (DLBCL [2]): Active; Activity [3]: Dose-Dependent Effect; Activity (SU-DHL-6 [4]): Active; Activity [5]: Active; Activity (SU-DHL-6 [6]): Dose-Dependent Effect; Activity [7]: Dose-Dependent Effect; Activity [8]: Active; Activity (SU-DHL-6 [9]): Active; Activity (SU-DHL-6 [10]): Active; Activity (SU-DHL-6 [11]): Active; Activity (SU-DHL-6 [12]): inactive; Activity (SU-DHL-2): Active; Activity (SU-DHL-6 [13]): Active; Activity (SUD4): Active; Activity (DLBCL [14]): Active; Activity [15]: Non-Toxic; Activity (SU-DHL-6 [16]): Active; Activity (DLBCL [17]): Active; Activity (SU-DHL-6 [18]): Active; Activity (DLBCL [19]): Dose-Dependent Effect; Activity [20]: inactive; Activity [21]: Active; Activity (SU-DHL-6 [22]): Active; Activity (SU-DHL-6 [23]): Dose-Dependent Effect

Question: For CCN(c1cc(-c2ccc(C(=O)NCCCCNc3cccc4c3C(=O)N(C3CCC(=O)NC3=O)C4=O)cc2)cc(C(=O)NCc2c(C)cc(C)[nH]c2=O)c1C)C1CCOCC1 (stereo unspecified), which Activity [24] is on record?
Answer: inactive

Question: And the Activity [25]?
Answer: Active

Question: What about the Activity [26] of the same compound?
Answer: Active

Question: And the Activity [27]?
Answer: Active

Question: And the Activity [28]?
Answer: inactive

Question: And the Activity [29]?
Answer: inactive

Question: With CCN(c1cc(-c2ccc(C(=O)NCCOCCOCC(=O)N[C@H](C(=O)N3C[C@H](O)C[C@H]3C(=O)NCc3ccc(-c4scnc4C)cc3)C(C)(C)C)cc2)cc(C(=O)NCc2c(C)cc(C)[nH]c2=O)c1C)C1CCOCC1 as the compound, how does the Activity [21] read?
Answer: Active

Question: Which results are given for CCN(c1cc(-c2ccc(C(=O)NCCOCCNc3cccc4c3C(=O)N(C3CCC(=O)NC3=O)C4=O)cc2)cc(C(=O)NCc2c(C)cc(C)[nH]c2=O)c1C)C1CCOCC1 (stereo unspecified)?
Answer: Activity [24]: inactive; Activity [25]: Active; Activity [26]: Active; Activity [27]: Active; Activity [28]: inactive; Activity [29]: inactive

Question: What does the source list for CCN(c1cc(-c2ccc(C(=O)NCCCCCCNC(=O)COc3cccc4c3C(=O)N(C3CCC(=O)NC3=O)C4=O)cc2)cc(C(=O)NCc2c(C)cc(C)[nH]c2=O)c1C)C1CCOCC1 (stereo unspecified)?
Answer: Activity [24]: inactive; Activity [25]: Active; Activity [26]: Active; Activity [27]: Active; Activity [28]: inactive; Activity [29]: inactive

Question: Which Activity [5] does the source give for CCN(c1cc(-c2ccc(C(=O)NCCOCCOCCOCC(=O)N[C@H](C(=O)N3C[C@H](O)C[C@H]3C(=O)NCc3ccc(-c4scnc4C)cc3)C(C)(C)C)cc2)cc(C(=O)NCc2c(C)cc(C)[nH]c2=O)c1C)C1CCOCC1 here?
Answer: inactive

Question: What about the Activity [21] of the same compound?
Answer: inactive
